Results reported in US20150174209A1, “INSULIN-PRAMLINTIDE COMPOSITIONS AND METHODS FOR MAKING AND USING THEM” (AMYLIN PHARMACEUTICALS. LLC, priority 2012, published 2015).

Legend:
type 1 diabetic subjects = test: Identification of the gastro-intestinal tract (oral glucose absorption) model on Ra meal data of the Woerle T1D database; design: species or system human; conditions: 30 μg pramlintide s.c. with meal containing 50 g glucose, 15 type 1 diabetic subjects
Method: The database was made up of 15 type 1 diabetic subjects (8 men and 7 women, 37±2 years of age, body weight 76±3 kg) (this is a database for each individual patient participating in the study published in Woerle et al. (December, 2008) Diabetes Care 31(12): 2325-2331, in which pramlintide was given to TI patients and labeled glucose appearance from meal to blood was measured; Woerle reported the effect of pramlintide on gastric emptying and thus glucose appearance in the blood after a meal in patients with type 1 diabetes). “Ra meal data” means the “glucose rate of appearance (Ra) of ingested glucose”; “Ra meal” refers to measurement in response to a meal (ingested), versus after say an intraduodenal injection of glucose.
Subjects were studied on 2 occasions: hyperglycemia with (PRAM) and without (PBO) 30 μg of pramlintide (Amylin Pharmaceuticals, San Diego, Calif.), injected subcutaneously in the lower abdominal wall with the standardized meal containing 50 g of glucose. Over the initial 90 min of the postprandial period, blood samples were taken at 15 min intervals and thereafter at 30-min intervals until completion of the experiment at 330 min.
The model has been numerically identified on placebo Ra meal data using nonlinear weighted least-squares estimator. Identification on pramlintide Ra meal data have required the use of Bayesian estimator in order to achieve a precise estimates of model parameters.
Identification of the gastro-intestinal tract model on Woerle Ra meal data has provided individual parameters estimates for the 15 T1D subjects in presence or absence of pramlintide. Then individual variation for each parameter has been calculated as: […]
We reduced the standard deviations of the variation of the parameters to the 30% of their values due to the small number of subjects available:
Then 100 virtual parameters variations were generated from the distribution: […]

healthy subjects = test: Glucose and C-peptide minimal models and minimal model of gastrointestinal absorption on aggregated Woerle data; design: species or system human
Text: The data published in Woerle et al. (December, 2008) Diabetes Care 31(12): 2325-2331, where a dual tracer approach was used in healthy subjects to estimate the rate of appearance of glucose during the meal and hepatic glucose production during placebo/pramlintide were used in an aggregated fashion (individual data not available, FIG. 13A). […] Subsequently, the minimal model of gastrointestinal absorption (FIG. 37) was used to quantify the changes of the rate of appearance of ingested glucose due to pramlintide. […] This finding was incorporated into the Healthy State Simulator and predictions were successfully tested against Woerle et al data FIG. 38. We also successfully tested the prediction of 2 h postprandial glucose of the Type 1 Diabetes Simulator (illustrated in FIG. 18) (incorporating the new kmax) against the data by Kovatchev B P, et al., Pramlintide reduces the risks associated with glucose variability in type 1 diabetes. Diabetes Technol Ther. 2008 October; 10(5):391-6. The new model was finally incorporated into our model predictive control algorithm and in silico experiment on the Type 1 diabetes.

[1] = system: patients with type 1 diabetes mellitus; conditions: in vivo, sc; cited from earlier work
[2] = Chemical stability of pramlintide and human insulin co-formulated in SYMLIN placebo buffer pH 4.0 (RP-HPLC purity; FIGS. 35, 36); conditions: for stability in co-formulation: 25 degrees Centigrade, SYMLIN placebo buffer pH 4.0, 13 week study
Method: Purity was determined via RP-HPLC and is normalized to time=0 purity.

[3] = pH 2-3; 4C; cited from earlier work
[4] = cited from earlier work

Compound: CC[C@H](C)[C@H](NC(=O)[C@@H]1CCCN1C(=O)CNC(=O)[C@H](Cc1ccccc1)NC(=O)[C@H](CC(N)=O)NC(=O)[C@H](CC(N)=O)NC(=O)[C@H](CO)NC(=O)[C@H](CO)NC(=O)[C@H](Cc1c[nH]cn1)NC(=O)[C@@H](NC(=O)[C@H](CC(C)C)NC(=O)[C@H](Cc1ccccc1)NC(=O)[C@H](CC(N)=O)NC(=O)[C@H](C)NC(=O)[C@H](CC(C)C)NC(=O)[C@H](CCCNC(=N)N)NC(=O)[C@H](CCC(N)=O)NC(=O)[C@@H](NC(=O)[C@H](C)NC(=O)[C@@H]1CSSC[C@H](NC(=O)[C@@H](N)CCCCN)C(=O)N[C@@H](CC(N)=O)C(=O)N[C@@H]([C@@H](C)O)C(=O)N[C@@H](C)C(=O)N[C@@H]([C@@H](C)O)C(=O)N1)[C@@H](C)O)C(C)C)C(=O)N[C@@H](CC(C)C)C(=O)N1CCC[C@H]1C(=O)N1CCC[C@H]1C(=O)N[C@H](C(=O)N[C@@H](CC(N)=O)C(=O)N[C@H](C(=O)NCC(=O)N[C@@H](CO)C(=O)N[C@@H](CC(N)=O)C(=O)N[C@H](C(=O)N[C@@H](Cc1ccc(O)cc1)C(N)=O)[C@@H](C)O)C(C)C)[C@@H](C)O [pramlintide]
- b (model parameter estimate, mean) (type 1 diabetic subjects): 0.985
- c (model parameter estimate, mean) (type 1 diabetic subjects): 0.537
- kabs (model parameter estimate, mean) (type 1 diabetic subjects): 0.020
- kmin (model parameter estimate, mean) (type 1 diabetic subjects): 0.005
- kmax (model parameter estimate, mean) (type 1 diabetic subjects; Bayesian estimator): 0.041
- effect on insulin sensitivity and beta-cell function (healthy subjects; glucose and C-peptide minimal models): no effect
- decrease of parameter kmax (maximum gastric emptying) (healthy subjects; minimal model of gastrointestinal absorption): ⅔
- effect of mixing with short- or long-acting insulin in the same syringe on pharmacodynamics of glucose and pharmacokinetics of insulin or pramlintide [1]: did not affect

Compound: human insulin: regular human hormone with 21 amino acid A chain (SEQ ID NO:2) and 30 amino acid B chain (SEQ ID NO:3)
- purity loss during storage ([2]; 25 degrees C, insulin in co-formulations): 40%
- stability in co-formulation [2]: rapidly degrades
- stability in co-formulation ([2]; listed as insulin): unacceptable degradation
- formation of monodesamido-(A21)-insulin [3]: 1-2 % per month
- absorption after subcutaneous injection [4]: 15 to 60 min
- duration of action ([4]; subcutaneous injection): 5 to 9 h
